Measured values reported in paper PMC6193035, “Novel small molecules affecting cell membrane as potential therapeutics for avian pathogenic Escherichia coli” (Scientific Reports, 2018).
≈ marks a conversion by molar mass, not a printed value. Marks after values point to notes of the source that are not given here.

Columns and labels:
[1] = system: APEC O78; assay: MIC and MBC determination in M63 media; assay type: cell-based, Escherichia coli; conditions: for MIC / MBC: Escherichia coli; for MBC: subculture on LB agar
Procedure: (§1) One microlitre SM of each concentration was transferred to each well of a 96-well plate containing 100 µL of the 0.05 OD600 adjusted APEC O78 culture in M63 media. Growth was monitored in Sunrise - Absorbance microplate reader as described above. MIC was indicated by lowest concentration of SM with non-elevated OD600 measurement. MBC was determined by absence of APEC growth on LB agar plate following subculture. […] Two independent experiments were conducted.

[2] = system: APEC O1; assay: MIC and MBC determination in M63 media; assay type: cell-based; conditions: Escherichia coli
[3] = system: APEC O2; assay: MIC and MBC determination in M63 media; assay type: cell-based; conditions: Escherichia coli
[4] = system: APEC O8; assay: MIC and MBC determination in M63 media; assay type: cell-based; conditions: Escherichia coli
[5] = system: APEC O15; assay: MIC and MBC determination in M63 media; assay type: cell-based; conditions: Escherichia coli
[6] = system: APEC O35; assay: MIC and MBC determination in M63 media; assay type: cell-based; conditions: Escherichia coli
[7] = system: APEC O115; assay: MIC and MBC determination in M63 media; assay type: cell-based; conditions: Escherichia coli
[8] = system: APEC O109; assay: MIC and MBC determination in M63 media; assay type: cell-based; conditions: Escherichia coli
[9] = system: APEC O78-53; assay: MIC and MBC determination in M63 media; assay type: cell-based; conditions: Escherichia coli; APEC O78-53, M63 media
Procedure: as §1

[10] = system: APEC O1-63; assay: MIC and MBC determination in M63 media; assay type: cell-based; conditions: Escherichia coli; APEC O1-63, M63 media
[11] = system: APEC O2-211; assay: MIC and MBC determination in M63 media; assay type: cell-based; conditions: Escherichia coli; APEC O2-211, M63 media
[12] = system: biofilm embedded APEC O78; assay: MBEC High-throughput (HTP) assay; assay type: cell-based, Escherichia coli
Procedure: The effect of cidal SMs against biofilm embedded APEC was determined using MBEC High-throughput (HTP) assay (Innovotech Inc., AB, Canada)[22]. Briefly, 150 μL of 0.05 OD600 adjusted APEC O78 culture was aliquoted into each well of the MBEC device containing polystyrene pegs and incubated at 37 °C for 36 h in LB media under stationary condition. […] The plate was incubated in the dark for 18 h at 37 °C with rotation at 110 rpm. The DMSO (1%) and […] media were used as positive and negative controls, respectively. Following incubation, MIC of SMs in challenged plate was recorded. The SMs exposed pegs were then transferred to a new 96-well plate containing PBS and sonicated for 30 mins (Aquasonic ultrasonic cleaner, VWR) to disrupt the biofilm. The sonicated suspensions were ten-fold serially diluted and plated on LB agar plate. Biofilm embedded APEC bacteria were enumerated and minimum biofilm eradication concentration (MBEC) of SMs were determined as described previously. Two independent experiments were conducted.

[13] = system: APEC O78; assay: Bacterial cytological profiling by confocal microscopy; assay type: cell-based, Escherichia coli; conditions: 2X MBC, 2 h
Procedure: Confocal microscopy was used for bacterial cytological profiling (BCP) to identify the cellular pathways targeted by SMs as described previously. […] After incubation, treated cultures were centrifuged, washed, and resuspended in 100 µL PBS. FM4-64 (#T13320 Molecular Probes/Invitrogen) (1 µg/mL) and SYTO-9 (#S34854 Molecular Probes/Invitrogen) (5 µM) were added to the bacterial cultures and incubated for 45 mins at room temperature with shaking at 150 rpm. Cultures were then centrifuged, washed, and resuspended in PBS to 1/10th volume of the original cultures.

[14] = system: APEC O78; assay: Crystal violet (CV) uptake assay; assay type: cell-based, Escherichia coli; conditions: 2X MBC, 30 mins; P < 0.05, Student's t-test
Procedure: (§2) Membrane permeability assays (crystal violet (CV) uptake and loss of 260/280 nm absorbing materials) were conducted as described previously. […] CV uptake was measured using the formula: (OD DMSO − OD SM/OD DMSO × 100). Two independent experiments in duplicates were conducted.

[15] = system: APEC O78; assay: Loss of 260/280 nm absorbing materials assay; assay type: cell-based, Escherichia coli; conditions: 2X MBC, 1 h; for Absorbance 280 nm of treated supernatant: DMSO 2.58; for Absorbance 280 nm of treated supernatant / Absorbance 260 nm of treated supernatant: superscript a P < 0.05 vs DMSO; for Absorbance 260 nm of treated supernatant: DMSO 3.77
Procedure: as §2

[16] = system: intracellular APEC O2 in Caco-2 cells; assay: Intracellular survival assay; assay type: cell-based, Escherichia coli; conditions: for minimal effective concentration: Escherichia coli, O2, Caco-2, 6 h treatment, read-out: SMs intracellular APEC clearance concentration; for concentration at which the SM significantly (P < 0.01) reduced intracellular APEC (superscript of t-statistic): O2, Caco-2, 6 h
Procedure: (§3) Intracellular survival assay was conducted as described previously[28],[29] to determine the effect of cidal SMs on APEC survival in phagocytic (HD11, THP-1) and non-phagocytic (Caco-2) cells. Briefly, mid-logarithmic phase grown APEC O78, O1, and O2 were washed and adjusted to 1 × 10^7 CFU/mL in cell culture incomplete media (no FBS and antibiotics). One-hundred microlitres adjusted APEC suspension was added at multiplicity of infection (MOI) 10 to wells of 96-well cell culture plate containing cultured macrophage (HD11, THP-1) and epithelial cells (Caco-2) and incubated for 1 h and 3 h, respectively. […] The cells were then lysed with 100 µL of 0.1% Triton X-100 for 5 mins, serially diluted, and plated on LB agar plate to enumerate viable bacteria. The intracellular bacteria in SMs treated wells were compared with DMSO (1%) treated wells. Two independent experiments in duplicate wells for each concentration of SMs were conducted.

[17] = system: intracellular APEC O78 in Caco-2 cells; assay: Intracellular survival assay; assay type: cell-based, Escherichia coli; conditions: for minimal effective concentration: Escherichia coli, O78, Caco-2, 6 h treatment, read-out: SMs intracellular APEC clearance concentration; for intracellular APEC clearance concentration as multiple of MIC (superscript): O78, Caco-2; for concentration at which the SM significantly (P < 0.01) reduced intracellular APEC (superscript of t-statistic): O78, Caco-2, 6 h
Procedure: as §3

[18] = system: intracellular APEC O78, O2, and O1 in infected Caco-2, HD11, and THP1 cells; assay: Intracellular survival assay, statements over all serotypes and cells; assay type: cell-based, Escherichia coli; conditions: for minimal effective concentration: Escherichia coli, 6 h, O78, O2 and O1, Caco-2, HD11, THP-1, read-out: concentration clearing intracellular APEC
Procedure: as §3

Row | SMILES | MIC [1] | MBC [1] | MBC [2] | MIC [2] | MBC [3] | MIC [3] | MBC [4] | MIC [4] | MBC [5] | MIC [5] | MBC [6] | MIC [6] | MBC [7] | MIC [7] | MBC [8] | MIC [8] | MBC [9] | MIC [9] | MBC [10] | MIC [10] | other results
1 | CC(=O)OC(C(Br)C(=O)c1ccc([N+](=O)[O-])cc1)C(Cl)(Cl)Cl (stereo not shown) [SM10] | 25 µM (≈ 10.8 µg/mL) | 50 µM (≈ 21.7 µg/mL) | 25 µM (≈ 10.8 µg/mL) | 25 µM (≈ 10.8 µg/mL) | 50 µM (≈ 21.7 µg/mL) | 25 µM (≈ 10.8 µg/mL) | 50 µM (≈ 21.7 µg/mL) | 50 µM (≈ 21.7 µg/mL) | 100 µM (≈ 43.3 µg/mL) | 50 µM (≈ 21.7 µg/mL) | 50 µM (≈ 21.7 µg/mL) | 25 µM (≈ 10.8 µg/mL) | 50 µM (≈ 21.7 µg/mL) | 25 µM (≈ 10.8 µg/mL) | 50 µM (≈ 21.7 µg/mL) | 25 µM (≈ 10.8 µg/mL) | 50 µM (≈ 21.7 µg/mL) | 25 µM (≈ 10.8 µg/mL) | 100 µM (≈ 43.3 µg/mL) | 50 µM (≈ 21.7 µg/mL) | MBC [11]: 50 µM (≈ 21.7 µg/mL); MIC [11]: 25 µM (≈ 10.8 µg/mL); concentration that significantly (P < 0.01) reduced biofilm embedded APEC ([12]; no eradication): 1 X MIC; MBEC as multiple of MIC ([12]; tested 0.5X to 8X MIC): > 8 X MIC; cytological profile (FM4-64 / SYTO-9 staining) [13]: filamentous or short rods (spheroplasts) morphology (PG synthesis inhibitors); uptake of crystal violet compared with DMSO [14]: increased the uptake of crystal violet; 260 nm absorbing materials in supernatant compared with DMSO [15]: significantly (P < 0.05, Student’s t-test) increased; 280 nm absorbing materials in supernatant compared with DMSO [15]: significantly (P < 0.05, Student’s t-test) increased; Absorbance 280 nm of treated supernatant [15]: 2.73^a; Absorbance 260 nm of treated supernatant [15]: 3.98^a; minimal effective concentration [16]: 100 µM; intracellular APEC clearance concentration as multiple of MIC (superscript) ([16]; O2, Caco-2): c (4X MIC); concentration at which the SM significantly (P < 0.01) reduced intracellular APEC (superscript of t-statistic) [16]: b (1X MIC); minimal effective concentration [17]: 100 µM; intracellular APEC clearance concentration as multiple of MIC (superscript) [17]: c (4X MIC); concentration at which the SM significantly (P < 0.01) reduced intracellular APEC (superscript of t-statistic) [17]: b (1X MIC); minimal effective concentration [18]: ≤ 100 µM; ranking in clearing intracellular APEC ([18]; all tested serotypes and cells): most effective SMs in clearing intracellular APEC serotypes in all tested cells
2 | COc1cc(CNCCc2ccc(C)cc2)ccc1OCC(O)CN1CCCC1 (stereo not shown) [SM3] | 100 µM (≈ 39.9 µg/mL) | 100 µM (≈ 39.9 µg/mL) | 200 µM (≈ 79.7 µg/mL) | 100 µM (≈ 39.9 µg/mL) | 200 µM (≈ 79.7 µg/mL) | 100 µM (≈ 39.9 µg/mL) | 100 µM (≈ 39.9 µg/mL) | 100 µM (≈ 39.9 µg/mL) | 100 µM (≈ 39.9 µg/mL) | 100 µM (≈ 39.9 µg/mL) | 200 µM (≈ 79.7 µg/mL) | 100 µM (≈ 39.9 µg/mL) | 100 µM (≈ 39.9 µg/mL) | 100 µM (≈ 39.9 µg/mL) | 200 µM (≈ 79.7 µg/mL) | 100 µM (≈ 39.9 µg/mL) | 200 µM (≈ 79.7 µg/mL) | 100 µM (≈ 39.9 µg/mL) | 200 µM (≈ 79.7 µg/mL) | 200 µM (≈ 79.7 µg/mL) | MBC relative to MIC [1]: identical to MIC; MBC [11]: 100 µM (≈ 39.9 µg/mL); MIC [11]: 100 µM (≈ 39.9 µg/mL); MBEC as multiple of MIC (superscript) ([12]; 18 h challenge in M63 media): b (1X MIC); cytological profile (FM4-64 / SYTO-9 staining) [13]: bright red foci at random positions throughout the cell indicating membrane defects (membrane pore formers); uptake of crystal violet compared with DMSO [14]: increased the uptake of crystal violet; 280 nm absorbing materials in supernatant compared with DMSO [15]: significantly (P < 0.05, Student’s t-test) increased; Absorbance 280 nm of treated supernatant [15]: 2.84^a; Absorbance 260 nm of treated supernatant [15]: 3.77; minimal effective concentration [16]: > 200 µM; concentration at which the SM significantly (P < 0.01) reduced intracellular APEC (superscript of t-statistic) [16]: b (1X MIC); minimal effective concentration [17]: 100 µM; intracellular APEC clearance concentration as multiple of MIC (superscript) [17]: a (1X MIC); concentration at which the SM significantly (P < 0.01) reduced intracellular APEC (superscript of t-statistic) [17]: a (0.5X MIC); minimal effective concentration [18]: ≥ 100 µM
